# Laboratory results published in patent US20160015725A1, “METHODS OF CONTROLLING TUMOR BIOENERGETICS NETWORKS” (THE WISTAR INSTITUTE OF ANATOMY AND BIOLOGY, priority 2012, published 2016).
# Assays:
# tumor cells = test: Autophagy (LC3 conversion, LC3-CFP puncta); type: cell-based, human
# Protocol: LN229 cells were transfected with various siRNAs, and mixed after 24 h with plasmid encoding cyan fluorescent protein (CFP) fused to human […] (LC3) cDNA in the presence of Lipofectamine 2000 Transfection Reagent (Invitrogen). After 48 h, transfected cells were fixed in 4% paraformaldehyde for 15 min at 37° C., washed, and examined by fluorescence microscopy (Nikon, E600). The numbers of CFP-LC3 punctate dots per cell was determined from three independent experiments. A minimum of 50 CFP-LC3-positive cells assessed from at least ten random fields per sample were counted in triplicate per each condition.
# Samples were imaged using a Leica TCS SP2 confocal microscope. For determination of autophagy, cells under the various conditions tested were harvested after 12 h, and analyzed with an antibody to […] (LC3) by Western blotting.
# CypD = test: Mitochondrial protein folding (detergent solubility); type: cell-based, human; conditions: increasing CHAPS concentrations
# Protocol: Mitochondrial protein folding assays were performed as described (Moisoi et al., 2009). Briefly, mitochondrial fractions were isolated from vehicle- or Gamitrinib-treated LN229 cells (5 μM for 12 h) and suspended in equal volume of mitochondrial fractionation buffer containing increasing concentrations of CHAPS (0, 0.05, 0.1, 0.2, 0.5, 1 or 2%). Samples were incubated for 20 min on ice and detergent-insoluble protein aggregates were isolated by centrifugation (20,000 g) for 20 min. Pellets were processed for further analysis.
# LN229 cells [1] = test: Oxygen consumption, fluorimetric assay; type: cell-based, human; conditions: tumor cells
# Protocol: Treated tumor cells were analyzed using a fluorescence oxygen sensitive probe-based oxygen measuring kit (Luxcel Bioscience). For these experiments, LN229 cells were plated at increasing cell density (10-60×10^4/ml) on black body, clear bottom 96-well plates. The culture medium was replaced with 150 μl of phenol free DMEM containing 10% fetal bovine serum in the presence of 17-AAG or Gamitrinib (10 μM). Cells were further incubated with an oxygen-sensing probe (10 pmol/well), and 100 μl of heavy mineral oil was added to each well to seal the samples from ambient oxygen. After a 2 h incubation at 37° C., oxygen consumption was determined by quantifying the probe fluorescence signal in each well using a plate reader (Beckman Coulter) with excitation and emission wavelengths at 370 nm and 625 nm, respectively.
# TRAMP mice prostate = test: Immunohistochemistry of TRAMP prostate tissues; type: in vivo, mouse; conditions: PIN lesions
# Protocol: The preclinical studies to test the efficacy and safety of Gamitrinib in a genetic mouse model of prostate cancer in immunocompetent TRAMP (Transgenic Adenocarcinoma of the Mouse Prostate) mice have been described (Kang et al., 2011). In this model, Gamitrinib was given systemically (5 mg/kg i.p. with the schedule 3 d on/2 d off) to TRAMP mice starting at 21.9 weeks of age (group 1) or 14.7 weeks of age (group 2), for 3 weeks or 5 weeks, respectively. In the control group, TRAMP mice of 24 weeks of age received vehicle. At the end of the experiment, animals in the vehicle or Gamitrinib groups were sacrificed and analyzed for localized and metastatic prostate cancer of adenocarcinoma or neuroendocrine histologic type (Kang et al., 2011).
# For analysis of patient-derived or TRAMP tissues, slides were microwaved for 35 min in EDTA solution. Sections (4-μm thick) were cut from all TMA blocks and TRAMP-derived prostatic tumors and stained with a rabbit polyclonal antibody to Grp78 (1:1000) for 30 min at 22° C. IHC was performed using a Ventana BenchMark Ultra autostainer (Ventana Medical Systems), with the ultraView Universal DAB Detection Kit (Ventana) for detection of antibody reactivity. All slides were counterstained with hematoxylin Immunoreactivity for Grp78 was evaluated by two pathologists (S.F. and S.B.) and independently scored for cytoplasmic localization. When discrepancies in scoring occurred, a consensus interpretation was reached after re-examination. The percentage of immunoreactive epithelial cells was determined and assigned to one of the following four categories: 0, (0%); 1, (1%-9%); 2, (10%-49%) and 3, (50%-100%). The intensity of immunostaining was scored as absent (0), mild (1), moderate (2) or strong (3). In the case of TMA, the two parameters were multiplied to generate a weighted score for each case that ranged from 0 to 9. Cases with weighted score 0 were defined as negative. Among AdCa samples in the series under investigation, 17 cases were negative for Grp78 expression, whereas 0 cases of SCC were Grp78-negative. […]
# LN229 cells [2] = test: Apoptosis by annexin V / PI flow cytometry; type: cell-based, human; conditions: HK-II silenced cells vs control transfectants
# Protocol: Various cell types were seeded in triplicate onto 96-well plates at 4×10^3 cells/well, treated with vehicle, Gamitrinib or 17-AAG (0-20 μM) for 12 h, and analyzed for changes in metabolic activity by an MTT assay. For determination of apoptosis, LN229 cells ([…]) were labeled for annexin V and propidium iodide (PI) (BD Biosciences), and analyzed by multiparametric flow cytometry (BD).
# PC3 cells = test: ER stress luciferase-promoter reporter assay; type: cell-based, human; conditions: PC3, 20 h
# Protocol: In another series of experiments, PC3 cells were transfected with control or Grp78-directed siRNA, and analyzed for cell viability after 24 h by an MTT assay. For promoter analysis, PC3 cells were plated in triplicate onto 48-well plates at 1.4×10^4 cells/well, and cotransfected with Firefly Luciferase-reporters for IRE1, ATF6, PERK or CHOP and a constitutive reporter (pTK-Renilla Luc) in a 10:1 ratio using X-tremeGENE reagent (Roche). After 24 h, cells were treated with vehicle, Gamitrinib, tunicamycin or 2-DG and analyzed after 20 h for Firefly and Renilla luciferase activity using a Dual Luciferase Reporter Assay System (Promega). Transfection of plasmid DNAs was carried out with lipofectamine 2000 (Invitrogen) according to published protocols. A PPIase-defective CypD H168Q mutant cDNA was generated by Quick-Change site-directed mutagenesis (Stratagene) using primers 5′-[…]-3′ (forward) and 5′-[…]-3′ (reverse) (mutated sequences are bolded). The inserted mutation (bolded) was confirmed by DNA sequencing, and cloned in a pcDNA3.0 expression vector (Invitrogen) for reconstitution experiments in CypD−/− MEFs.
# [3] = tested on: FF2508 or MRC5 primary human fibroblasts; test: AMPK activation in normal fibroblasts; type: cell-based
# Protocol: For Western blotting, protein lysates were prepared from the different cell types in RIPA Buffer (150 mM NaCl, 1.0% Triton X-100, 0.5% sodium deoxycholate, 0.1% SDS, 50 mM Tris, pH 8.0) containing EDTA-free Protease Inhibitor Cocktail (Roche) and Phosphatase Inhibitor Cocktail 2 and 3 (Sigma Aldrich). Equal amounts of protein lysates were separated by SDS gel electrophoresis, transferred to PVDF membranes and incubated with primary antibodies of various specificities. Protein bands were detected by chemiluminescence.
smiles,measurement,setting,value
CO[C@H]1/C=C\C=C(/C)C(=O)NC2=CC(=O)C(NCCCCCC[P+](c3ccccc3)(c3ccccc3)c3ccccc3)=C(C[C@@H](C)C[C@H](OC)[C@H](O)[C@@H](C)/C=C(\C)[C@@H]1OC(N)=O)C2=O [Gamitrinib],autophagy (LC3-II conversion),tumor cells,strongly activated autophagy
same,COX-IV solubility,CypD,indistinguishable in control or Gamitrinib-treated cells
same,CypD solubility,CypD; vs untreated cultures,caused CypD to remain insoluble over a broad range of detergent concentrations
same,oxygen consumption,LN229 cells [1],reduced
same,GRP78 expression,TRAMP mice prostate,upregulation of GRP78
same,"autophagy, LC3 conversion",TRAMP mice prostate,"induction of autophagy, i.e. LC3 conversion"
same,phosphorylated AMPK expression,TRAMP mice prostate,increased expression of phosphorylated AMPK
same,Annexin V labeling,LN229 cells [2],increased Annexin V labeling
same,minimal CHOP promoter activity,PC3 cells,transcriptionally induced
same,"transcriptional activation of response elements of IRE-1, ATF-6 and PERK",PC3 cells,comparably induced transcriptional activation
same,AMPK activation,[3],did not activate AMPK
